Results reported in ChEMBL document CHEMBL5380872, “Development of a Potent Nurr1 Agonist Tool for In Vivo Applications” (J Med Chem, 2023).
pEC50, pIC50: −log10 of the molar value.

Columns and labels:
[1] = biological target: Dihydroorotate dehydrogenase (quinone), mitochondrial (Rattus norvegicus, UniProt Q63707)
[2] = rat, in vivo, po, 5 mg/kg, 8 h
[3] = in vivo; details: Sprague-Dawley, rat, po, 5 mg/kg
[4] = biological target: T1, Nuclear receptor subfamily 4immunitygroup A member 1 (Homo sapiens, UniProt P22736); experiment: cell-based
[5] = biological target: T1, Nuclear receptor subfamily 4immunitygroup A member 1
[6] = biological target: Nuclear receptor subfamily 4 group A member 3 (Homo sapiens, UniProt Q92570)
[7] = biological target: T2, Thyroid hormone receptor alpha (Homo sapiens, UniProt P10827)
T2 sequence (P10827 whole entry): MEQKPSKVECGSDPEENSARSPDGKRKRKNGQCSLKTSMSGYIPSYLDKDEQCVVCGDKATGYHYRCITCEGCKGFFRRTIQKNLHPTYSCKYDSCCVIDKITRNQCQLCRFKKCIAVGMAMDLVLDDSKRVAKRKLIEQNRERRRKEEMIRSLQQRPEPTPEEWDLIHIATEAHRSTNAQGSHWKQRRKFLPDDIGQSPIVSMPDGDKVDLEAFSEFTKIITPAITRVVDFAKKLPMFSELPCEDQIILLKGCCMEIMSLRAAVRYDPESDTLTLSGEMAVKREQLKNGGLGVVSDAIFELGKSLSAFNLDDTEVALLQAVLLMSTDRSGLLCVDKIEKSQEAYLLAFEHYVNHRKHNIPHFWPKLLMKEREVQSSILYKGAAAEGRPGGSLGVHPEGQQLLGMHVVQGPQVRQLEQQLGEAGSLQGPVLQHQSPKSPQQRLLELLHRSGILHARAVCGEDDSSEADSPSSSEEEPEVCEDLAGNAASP

[8] = biological target: T3, Retinoic acid receptor alpha (Homo sapiens, UniProt P10276)
T3 sequence (P10276 whole entry): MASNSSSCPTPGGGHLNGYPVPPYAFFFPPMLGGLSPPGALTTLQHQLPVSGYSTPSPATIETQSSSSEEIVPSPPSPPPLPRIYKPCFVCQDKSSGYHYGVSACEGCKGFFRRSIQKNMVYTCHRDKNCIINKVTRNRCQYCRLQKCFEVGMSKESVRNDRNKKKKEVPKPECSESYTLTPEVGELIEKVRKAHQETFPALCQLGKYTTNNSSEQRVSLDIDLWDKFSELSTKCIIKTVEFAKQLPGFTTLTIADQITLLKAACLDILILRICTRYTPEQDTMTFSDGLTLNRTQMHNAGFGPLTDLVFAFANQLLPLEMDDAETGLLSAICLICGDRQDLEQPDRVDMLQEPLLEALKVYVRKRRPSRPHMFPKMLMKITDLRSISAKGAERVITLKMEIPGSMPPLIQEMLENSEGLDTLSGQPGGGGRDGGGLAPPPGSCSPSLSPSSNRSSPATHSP

[9] = biological target: T4, Peroxisome proliferator-activated receptor alpha (Homo sapiens, UniProt Q07869)
T4 sequence (Q07869 whole entry): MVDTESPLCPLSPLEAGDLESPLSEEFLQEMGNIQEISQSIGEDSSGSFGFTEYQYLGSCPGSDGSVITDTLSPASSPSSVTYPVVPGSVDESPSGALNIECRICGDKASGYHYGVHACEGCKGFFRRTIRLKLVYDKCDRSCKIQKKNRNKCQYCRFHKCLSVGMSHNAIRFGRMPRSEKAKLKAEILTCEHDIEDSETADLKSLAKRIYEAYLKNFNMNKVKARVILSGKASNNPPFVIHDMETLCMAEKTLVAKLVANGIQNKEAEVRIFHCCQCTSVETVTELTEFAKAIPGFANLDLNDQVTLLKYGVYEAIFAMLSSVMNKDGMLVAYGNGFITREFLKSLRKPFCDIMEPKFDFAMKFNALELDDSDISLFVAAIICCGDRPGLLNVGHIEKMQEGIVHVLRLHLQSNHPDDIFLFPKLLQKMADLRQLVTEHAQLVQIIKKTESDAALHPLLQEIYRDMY

[10] = biological target: T5, Peroxisome proliferator-activated receptor gamma (Homo sapiens, UniProt P37231)
T5 sequence (P37231 whole entry): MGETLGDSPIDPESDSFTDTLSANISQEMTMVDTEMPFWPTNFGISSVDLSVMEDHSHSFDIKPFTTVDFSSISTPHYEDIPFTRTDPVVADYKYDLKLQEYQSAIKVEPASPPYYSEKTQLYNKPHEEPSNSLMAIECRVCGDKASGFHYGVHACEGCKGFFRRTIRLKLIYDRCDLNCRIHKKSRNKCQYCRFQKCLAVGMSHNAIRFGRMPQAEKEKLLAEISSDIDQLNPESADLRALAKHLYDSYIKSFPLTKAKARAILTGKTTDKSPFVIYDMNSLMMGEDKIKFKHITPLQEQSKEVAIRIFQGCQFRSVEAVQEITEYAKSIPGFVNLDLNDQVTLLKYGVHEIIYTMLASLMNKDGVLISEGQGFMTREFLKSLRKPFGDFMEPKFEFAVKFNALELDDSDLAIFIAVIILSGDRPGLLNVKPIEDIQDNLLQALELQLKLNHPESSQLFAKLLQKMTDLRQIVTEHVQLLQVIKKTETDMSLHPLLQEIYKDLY

[11] = biological target: T6, Vitamin D3 receptor (Homo sapiens, UniProt P11473)
T6 sequence (P11473 whole entry): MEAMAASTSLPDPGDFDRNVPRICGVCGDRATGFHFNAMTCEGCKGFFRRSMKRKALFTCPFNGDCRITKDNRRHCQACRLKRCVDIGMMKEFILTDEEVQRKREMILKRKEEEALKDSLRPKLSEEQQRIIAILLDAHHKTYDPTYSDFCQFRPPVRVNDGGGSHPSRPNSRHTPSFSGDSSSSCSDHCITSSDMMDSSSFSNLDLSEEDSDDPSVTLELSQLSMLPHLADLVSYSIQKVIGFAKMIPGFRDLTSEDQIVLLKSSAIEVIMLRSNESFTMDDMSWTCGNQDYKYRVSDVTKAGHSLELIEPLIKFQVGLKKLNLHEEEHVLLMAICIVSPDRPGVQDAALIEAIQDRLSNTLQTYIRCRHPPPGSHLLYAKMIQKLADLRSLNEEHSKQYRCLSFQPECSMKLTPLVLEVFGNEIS

[12] = biological target: T7, Bile acid receptor (Homo sapiens, UniProt Q96RI1)
T7 sequence (Q96RI1 whole entry): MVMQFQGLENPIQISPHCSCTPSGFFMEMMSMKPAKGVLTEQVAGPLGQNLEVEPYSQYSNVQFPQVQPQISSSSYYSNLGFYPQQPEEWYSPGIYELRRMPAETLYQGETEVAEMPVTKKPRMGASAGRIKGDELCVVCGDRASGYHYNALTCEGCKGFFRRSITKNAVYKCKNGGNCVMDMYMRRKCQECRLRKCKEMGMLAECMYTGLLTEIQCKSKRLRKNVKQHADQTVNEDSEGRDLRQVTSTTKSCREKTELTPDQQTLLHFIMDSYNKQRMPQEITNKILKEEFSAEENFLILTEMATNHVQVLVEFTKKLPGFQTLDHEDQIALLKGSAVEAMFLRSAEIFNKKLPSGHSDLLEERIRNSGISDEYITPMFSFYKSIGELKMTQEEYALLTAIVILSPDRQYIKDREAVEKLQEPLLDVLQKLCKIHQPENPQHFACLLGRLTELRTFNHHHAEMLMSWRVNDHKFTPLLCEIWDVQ

[13] = biological target: T8, Retinoic acid receptor RXR-alpha (Homo sapiens, UniProt P19793)
T8 sequence (P19793 whole entry): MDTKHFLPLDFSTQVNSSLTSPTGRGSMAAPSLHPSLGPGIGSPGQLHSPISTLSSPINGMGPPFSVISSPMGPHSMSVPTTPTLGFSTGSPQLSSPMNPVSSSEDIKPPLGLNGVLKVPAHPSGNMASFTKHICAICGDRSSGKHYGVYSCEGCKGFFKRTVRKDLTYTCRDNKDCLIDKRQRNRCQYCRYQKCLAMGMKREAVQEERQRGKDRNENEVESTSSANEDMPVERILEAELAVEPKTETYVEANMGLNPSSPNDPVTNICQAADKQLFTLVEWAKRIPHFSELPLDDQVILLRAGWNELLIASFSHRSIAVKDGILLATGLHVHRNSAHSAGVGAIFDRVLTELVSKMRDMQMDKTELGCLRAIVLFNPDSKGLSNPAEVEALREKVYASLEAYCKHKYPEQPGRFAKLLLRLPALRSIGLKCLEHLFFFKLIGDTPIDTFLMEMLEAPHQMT

T1 sequence (P22736 whole entry): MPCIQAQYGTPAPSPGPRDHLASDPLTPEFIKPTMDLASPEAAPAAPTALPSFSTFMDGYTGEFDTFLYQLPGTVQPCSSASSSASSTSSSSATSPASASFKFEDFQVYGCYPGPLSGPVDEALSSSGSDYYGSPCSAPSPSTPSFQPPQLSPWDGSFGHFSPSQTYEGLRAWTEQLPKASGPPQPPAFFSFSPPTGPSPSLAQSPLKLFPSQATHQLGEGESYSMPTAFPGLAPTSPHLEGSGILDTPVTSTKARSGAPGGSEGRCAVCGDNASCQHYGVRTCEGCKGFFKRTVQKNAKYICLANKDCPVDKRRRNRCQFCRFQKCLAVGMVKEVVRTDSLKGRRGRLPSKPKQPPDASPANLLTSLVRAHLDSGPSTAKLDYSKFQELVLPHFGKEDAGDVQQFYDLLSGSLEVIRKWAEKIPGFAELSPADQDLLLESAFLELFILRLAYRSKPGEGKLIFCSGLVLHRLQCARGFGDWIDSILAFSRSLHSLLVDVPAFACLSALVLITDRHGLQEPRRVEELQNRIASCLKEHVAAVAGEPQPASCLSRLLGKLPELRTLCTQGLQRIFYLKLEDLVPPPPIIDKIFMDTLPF
Sequence of Dihydroorotate dehydrogenase (quinone), mitochondrial (Q63707 whole entry): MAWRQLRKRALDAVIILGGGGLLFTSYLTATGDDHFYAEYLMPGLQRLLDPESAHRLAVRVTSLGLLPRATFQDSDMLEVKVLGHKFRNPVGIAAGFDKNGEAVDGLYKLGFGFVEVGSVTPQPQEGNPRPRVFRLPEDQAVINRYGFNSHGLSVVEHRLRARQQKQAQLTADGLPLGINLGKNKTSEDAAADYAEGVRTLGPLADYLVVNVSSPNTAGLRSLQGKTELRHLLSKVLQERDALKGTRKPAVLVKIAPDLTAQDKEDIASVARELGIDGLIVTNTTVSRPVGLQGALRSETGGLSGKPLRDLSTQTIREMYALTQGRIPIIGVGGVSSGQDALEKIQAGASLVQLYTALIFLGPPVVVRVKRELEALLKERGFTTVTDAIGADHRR
Sequence of Nuclear receptor subfamily 4 group A member 3 (Q92570 whole entry): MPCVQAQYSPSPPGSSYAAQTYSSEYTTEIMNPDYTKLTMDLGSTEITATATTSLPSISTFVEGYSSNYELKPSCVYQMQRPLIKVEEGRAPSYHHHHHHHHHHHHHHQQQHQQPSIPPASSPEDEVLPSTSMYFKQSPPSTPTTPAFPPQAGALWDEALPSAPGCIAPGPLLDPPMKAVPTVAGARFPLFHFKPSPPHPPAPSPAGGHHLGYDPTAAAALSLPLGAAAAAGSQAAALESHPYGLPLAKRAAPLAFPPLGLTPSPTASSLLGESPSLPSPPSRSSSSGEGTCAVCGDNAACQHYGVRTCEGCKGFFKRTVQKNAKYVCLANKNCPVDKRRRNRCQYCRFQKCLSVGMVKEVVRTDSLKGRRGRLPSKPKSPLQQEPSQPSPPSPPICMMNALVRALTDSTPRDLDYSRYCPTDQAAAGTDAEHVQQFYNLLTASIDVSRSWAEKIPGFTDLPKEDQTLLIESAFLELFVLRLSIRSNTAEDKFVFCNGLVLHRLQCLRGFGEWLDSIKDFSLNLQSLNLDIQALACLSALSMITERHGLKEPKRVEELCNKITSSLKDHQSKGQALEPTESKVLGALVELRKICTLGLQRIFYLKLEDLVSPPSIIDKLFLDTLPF

Row | pIC50 [1] | Cmax [2] [µM] | AUC at 8 h [3] [µM·h] | pEC50 [4] | SMILES | pEC50 [5] | pEC50 [6] | pEC50 [7] | pEC50 [8] | pEC50 [9] | pEC50 [10] | pEC50 [11] | pEC50 [12] | pEC50 [13]
1 | 5.22 | 56 | 290 | 5.85 | C#CCOc1cccc(-c2ccc(NC(=O)C3=C(C(=O)O)CCC3)c(F)c2)c1 | – | – | – | – | – | – | – | – | –
2 | – | – | – | – | COc1cccc(-c2ccc(NC(=O)C3=C(C(=O)O)CCC3)c(F)c2)c1 [VIDOFLUDIMUS] | 5.51 | 5.54 | < 5.00 | < 5.00 | < 5.00 | < 5.00 | < 5.00 | < 5.00 | < 5.00
